Assay [1] has as its target T1, cGK (Homo sapiens, UniProt Q13976).
T1 sequence (Q13976 1-671): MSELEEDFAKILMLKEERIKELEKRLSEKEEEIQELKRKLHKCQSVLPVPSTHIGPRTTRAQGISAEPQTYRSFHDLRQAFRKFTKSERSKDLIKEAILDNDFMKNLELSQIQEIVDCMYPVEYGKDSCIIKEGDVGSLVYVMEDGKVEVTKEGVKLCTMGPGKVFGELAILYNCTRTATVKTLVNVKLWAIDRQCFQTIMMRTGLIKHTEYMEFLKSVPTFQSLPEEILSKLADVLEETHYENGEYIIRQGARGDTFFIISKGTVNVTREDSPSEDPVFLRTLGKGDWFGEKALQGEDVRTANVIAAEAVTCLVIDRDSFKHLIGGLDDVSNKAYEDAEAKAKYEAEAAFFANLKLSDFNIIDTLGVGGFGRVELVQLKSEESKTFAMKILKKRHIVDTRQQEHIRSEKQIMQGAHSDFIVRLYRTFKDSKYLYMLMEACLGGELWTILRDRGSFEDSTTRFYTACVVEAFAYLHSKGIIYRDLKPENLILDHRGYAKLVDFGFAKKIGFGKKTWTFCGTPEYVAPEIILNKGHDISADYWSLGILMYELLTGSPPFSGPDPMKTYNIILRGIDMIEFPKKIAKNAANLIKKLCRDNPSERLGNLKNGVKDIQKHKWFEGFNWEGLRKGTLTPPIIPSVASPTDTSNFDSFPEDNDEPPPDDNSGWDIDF
The assay is described as follows: biochemical.
Description: Instead of carrying out a kinase reaction for the purpose of establishing and optimizing the detection system, a synthetic phosphopeptide (phosphorylated version of the VASP substrate peptide) was used as the “reaction product” and was quantified using a detection mix. In order to ascertain the linear measurement range, different mixtures of unphosphorylated peptide and phosphopeptide were prepared. When so doing, the total concentration of peptide was kept constant at 500 nmol/l. 50 μl of these mixtures were added to the wells of a 96-well microtest plate and in each case treated with 200 μl of a detection mix which contained the following reagents diluted in PBS:
The time-resolved FRET signal, when exciting the europium fluorescence at 340 nm and measuring the emission of the APC fluorescence at 660 nm, was measured, after incubating at 20° C. for 1 hour, using a PerkinElmer Wallac fluorescence-measuring instrument (Victor^2).
After the tubes had been preincubated at 30° C. for 5 minutes, the kinase reaction was started with 50 μmol of ATP/l, with subsequent incubation being at 30° C. All the above-mentioned concentrations are to be understood as meaning final concentrations in a volume of 500 μl. […] The phosphorylated substrate peptide was detected, as described in Example 1, in the wells of a 384-well microtest plate. […]

In assay [2] the target is T1, cGK. The experiment in a line: Influence of DMSO on the enzyme activity in the test system. The format is biochemical. Conditions: for Enzyme activity in cps/min: incubation period 10 min. Here is the method:
Most substances which are tested in an HTS are preferably dissolved in DMSO. However, many enzymes or test systems are very sensitive to DMSO. In order to determine the influence of DMSO on the test system according to the invention, phosphorylation kinetics, as described in Example 2 (cf. FIG. 2), were carried out in the presence of 0, 5, 10, 15 and 20% DMSO.

Results on two compounds are retold here after patent US20030166005A1, “Test system for determining the activity of cyclo-nucleotide-dependent protein kinases and vasp phosphatases” (priority 2000, published 2003).

Structures are written as SMILES.

In assay [1], `Nc1nc(=O)c2nc(Sc3ccc(Cl)cc3)n([C@@H]3O[C@@H]4COP(=O)(O)O[C@H]4[C@H]3O)c2[nH]1` [8-pCPT-cGMP] had a concentration for a half-maximal effect (EC50) of 0.1 µM. This counts as sub-micromolar.
With `C[S+](C)[O-]` [DMSO, dimethyl sulfoxide], the “Enzyme activity in cps/min” value was 2282 cps/min in assay [2] (5 percent by volume of DMSO), 2253 cps/min in assay [2] (10 percent by volume of DMSO), 2218 cps/min in assay [2] (15 percent by volume of DMSO) and 1988 cps/min in assay [2] (20 percent by volume of DMSO). Moreover, the “influence on the reaction” value in assay [2] (up to 20 percent by volume of DMSO) was “no significant influence”.
